Tested on: Balb/c mice
Test: delayed type hypersensitivity (DTH) reaction in the mouse ear, OXA-sensitized mice
Assay type: in vivo
Conditions: for Diff. Tt24-Tt0: ear thickness 24 hours after challenge; for Diff. Tt24-Tt0 / Diff Tt48-Tt0 / Diff Tt24-Tt0: mean; for Diff Tt48-Tt0: ear thickness 48 hours after challenge; for Diff Tt24-Tt0: L-forms
Text: The property of the compounds diNAC, diBUT, diVAL, diCAP, diMeNAC, diEtNAC and diMeVAL to stimulate immune responses is illustrated by their efficacy in a model of the delayed type hypersensitivity (DTH) reaction in the mouse.
Both male and female Balb/c mice obtained from Bomholtsgaard (Denmark) and Charlie Rivers (England), were used at the weight of 18-20 gram. 4-ethoxymethylene-2-phenyloxazolone (OXA) was purchased from BDH (England) and served as an antigen in this test.
The mice were sensitized, Day 0, by epicutaneous application of 150 µl absolute ethanol-acetone (3:1) solution containing 3% OXA on the shaved thorax and abdomen. Treatment with the L-form of diNAC, diMeNAC, diEtNAC, diMeVAL, or vehicle (phosphate buffer, pH 7.0) was initiated by oral feeding immediately after sensitization and continued once daily to Day 6. […] after the sensitization both ears of all mice were challenged on both sides by topical application of 20 µl 1% OXA dissolved in peanut oil. Ear thickness was measured prior to and 24 or 48 hours after challenge using an Oditest spring calliper. Challenges and measurements were performed under light pentobarbital anasthesia. The intensity of the DTH reactions was expressed according to the formula: Tt24/48-Tt0 µm units, where t0, t24 and t48 represent the ear thickness before and 24 or 48 hours after challenge, respectively, in an individual […]. The results were expressed as the mean +/-S.E.M. The level of significance between means of the groups was obtained by Student's two-tailed t-test. Tables 1 and 2 show the results from 24 and 48 hours measurements, respectively, from a representative experiment with the L-form of diNAC. […]

[1] = 0.03 µmol/kg oral once daily Day 0 to Day 6
[2] = 0.30 µmol/kg oral once daily Day 0 to Day 6
[3] = 3.0 µmol/kg oral once daily Day 0 to Day 6
[4] = 30.0 µmol/kg oral once daily Day 0 to Day 6
[5] = Table 3, 24 h after challenge, 0.03 µmol/kg oral
[6] = Table 3, 24 h after challenge, 3.0 µmol/kg oral
[7] = Table 3, 48 h section, 0.03 µmol/kg oral
[8] = Table 3, 48 h section, 3.0 µmol/kg oral

CCCCCCCC(=O)N[C@@H](CSSC[C@H](NC(=O)CCCCCCC)C(=O)O)C(=O)O [diCAP, N,N'-dicaprylylcystine]
immunostimulating effect in the DTH reaction in the mouse ear (result in words): highly potent and efficient immunostimulating agents

COC(=O)[C@H](CSSC[C@H](NC(=O)CC(C)C)C(=O)OC)NC(=O)CC(C)C [diMeVAL, N,N'-diisovalerylcystine dimethyl ester]
immunostimulating effect in the DTH reaction in the mouse ear (result in words): highly potent and efficient immunostimulating agents

CC(C)CC(=O)N[C@@H](CSSC[C@H](NC(=O)CC(C)C)C(=O)O)C(=O)O [diVAL, N,N'-diisovalerylcystine]
immunostimulating effect in the DTH reaction in the mouse ear (result in words): highly potent and efficient immunostimulating agents

CC(=O)N[C@@H](CSSC[C@H](NC(C)=O)C(=O)O)C(=O)O [L-diNAC, N,N'-diacetyl-L-cystine]
Diff. Tt24-Tt0 [1]: 13.75 µm units
Diff. Tt24-Tt0 [2]: 15.70 µm units
Diff. Tt24-Tt0 [3]: 18.30 µm units
Diff. Tt24-Tt0 [4]: 20.67 µm units
Diff Tt48-Tt0 [1]: 11.65 µm units
Diff Tt48-Tt0 [2]: 12.65 µm units
Diff Tt48-Tt0 [3]: 14.95 µm units
Diff Tt48-Tt0 [4]: 13.63 µm units
ear thickness after oral administration (result in words, 24 and 48 hours after challenge, oral): significant increase of the ear thickness in a concentration-response manner

CCCC(=O)N[C@@H](CSSC[C@H](NC(=O)CCC)C(=O)O)C(=O)O [diBUT, N,N' - dibutyrylcystine]
immunostimulating effect in the DTH reaction in the mouse ear (result in words): highly potent and efficient immunostimulating agents

COC(=O)[C@H](CSSC[C@H](NC(C)=O)C(=O)OC)NC(C)=O [diMeNAC, N,N'-diacetylcystine dimethyl ester]
Diff Tt24-Tt0 [5]: 18.00 µm units
Diff Tt24-Tt0 [6]: 12.55 µm units
Diff Tt24-Tt0 [7]: 12.85 µm units
Diff Tt24-Tt0 [8]: 13.35 µm units
immunostimulating effect in the DTH reaction in the mouse ear (result in words): highly potent and efficient immunostimulating agents

CC(=O)N[C@@H](CSSC[C@H](NC(C)=O)C(=O)O)C(=O)O [diNAC, N,N'-diacetylcystine]
immunostimulating effect in the DTH reaction in the mouse ear (result in words): highly potent and efficient immunostimulating agents

CCOC(=O)[C@H](CSSC[C@H](NC(C)=O)C(=O)OCC)NC(C)=O [diEtNAC, N,N'-diacetylcystine diethyl ester]
Diff Tt24-Tt0 [5]: 11.75 µm units
Diff Tt24-Tt0 [6]: 13.05 µm units
Diff Tt24-Tt0 [7]: 13.15 µm units
Diff Tt24-Tt0 [8]: 13.20 µm units
immunostimulating effect in the DTH reaction in the mouse ear (result in words): highly potent and efficient immunostimulating agents
